# Literature values, collected in patent US12508229B2, “Method for preparing stable peptide formulations” (Amphastar Pharmaceuticals, Inc., priority 2019, dated 2025).
aqueous solubility (in words),Compound,aqueous solubility
,"OC[C@H]1O[C@@H]2O[C@H]3[C@H](O)[C@@H](O)[C@@H](O[C@H]4[C@H](O)[C@@H](O)[C@@H](O[C@H]5[C@H](O)[C@@H](O)[C@@H](O[C@H]6[C@H](O)[C@@H](O)[C@@H](O[C@H]7[C@H](O)[C@@H](O)[C@@H](O[C@H]1[C@H](O)[C@H]2O)O[C@@H]7CO)O[C@@H]6CO)O[C@@H]5CO)O[C@@H]4CO)O[C@@H]3CO [α-CD, α-cyclodextrin]",about 5 wt %
higher aqueous solubility than α-CD,hydroxypropyl β-cyclodextrin [HP-ß-CD],
freely soluble in water,OC[C@H]1O[C@@H]2O[C@H]3[C@H](O)[C@@H](O)[C@@H](O[C@H]4[C@H](O)[C@@H](O)[C@@H](O[C@H]5[C@H](O)[C@@H](O)[C@@H](O[C@H]6[C@H](O)[C@@H](O)[C@@H](O[C@H]7[C@H](O)[C@@H](O)[C@@H](O[C@H]8[C@H](O)[C@@H](O)[C@@H](O[C@H]9[C@H](O)[C@@H](O)[C@@H](O[C@H]1[C@H](O)[C@H]2O)O[C@@H]9CO)O[C@@H]8CO)O[C@@H]7CO)O[C@@H]6CO)O[C@@H]5CO)O[C@@H]4CO)O[C@@H]3CO [γ-cyclodextrin],
